From US20240294545A1 (CSPC Zhongqi Pharmaceutical Technology (Shijiazhuang) Co., …, priority 2020, published 2024)
pIC50: −log10 of the molar value. Like-named read-outs stand apart in the source and are kept apart here. Marks after values point to notes of the source that are not given here.

Legend:
ATM = ATM (Homo sapiens (Human), UniProt Q13315); assay: Caliper mobility shift assay for ATM; assay type: biochemical; settings: read-out: IC50 of inhibitory activity on ATM kinase
Experimental: 1.2 Determination of the Inhibitory Activities of Compounds on ATM: Caliper Mobility Shift Assay for ATM
To a 96-well plate, 98 μL of DMSO and 2 μL of the 10 mM stock solution were added and mixed evenly so that the concentration of the solution was 200 μM.
Based on the inhibitory rates of the compound at different concentrations, IC50 was calculated according to the formula: Y=Bottom+(Top−Bottom)/(1+(IC50/X)^HillSlope).

[1] = test system: subcutaneous xenograft tumor of human glioblastoma LN-18; assay: LN-18 subcutaneous xenograft, combined with radiotherapy; assay type: in vivo, NOG mice; settings: day 17
Experimental: 9 Efficacy Test of the Compounds of the Present Disclosure Combined with Radiotherapy on Inhibiting the Growth of Subcutaneous Xenograft Tumor of Human Glioblastoma LN-18
9.1 Experimental Animals: NOG Mice, SPF, Female, 18 to 22 g.
LN-18 tumor cells, DMEM medium:fetal bovine serum=95%:5%, accompanied by adding 100 U/mL penicillin and 100 μg/mL streptomycin, 37° C., 5% CO2.
LN18 tumor cells resuspended in serum-free DMEM medium were inoculated subcutaneously in the right costal region of experimental animals at 1.5*10^7/0.15 mL, and the animals were grouped when the tumor grew to 100 to 150 mm^3. Radiotherapy was performed 1 h after administration of compounds.
Tumor volume: The tumor volume was measured twice a week with a vernier caliper, and the long diameter and short diameter of tumor were measured. The tumor volume was calculated as follows: tumor volume (TV)=0.5×long diameter×short diameter^2. Tumor growth inhibitory rate (TGI %) was calculated according to the tumor volume. TVXn represents the mean tumor volume on day n of the treatment group, TVX0 represents the mean tumor volume on day 0 of the treatment group, TVMn represents the mean tumor volume on day n of the control group, and TVM0 represents the mean tumor volume on day 0 of the control group.

ATM-phosphorylated KAP1 = assay: Intracellular ATM-phosphorylated KAP1 level, ICW assay in MCF7 cells; assay type: cell-based, Human; settings: MCF7 cells, 2 h compound, 10 Gy irradiation, further 1 h, read-out: pKAP1 IC50
Experimental: 4 Inhibition on Intracellular ATM-Phosphorylated KAP1 Level by the Compounds of the Present Disclosure: ICW Assay
• Cell: Human breast cancer cell line MCF7 • Materials and reagents:
4.2 Experimental Procedures
• (1) Cell inoculation • MCF7 cells were inoculated on a 384-well plate, 10000 cells/well (25 μL/well), and cultured overnight at 37° C. with 5% CO2. • (2) Activity detection • 1) The compound was formulated into a 100 mM solution with DMSO and then sequentially diluted with a gradient of 1:3 to yield a total of 10 concentration gradients, wherein the maximum concentration was 100 μM. • 2) 25 nL of each of the compound solutions with gradient concentrations prepared in step 1) was added to each well of the cell plate (Corning #356663) by using I-DOT One, resulting in a final concentration of 100 nM (maximum dose). • 3) The cell plate containing compound was incubated at 37° C. with 5% CO2 for 2 h. After 2 h, the cell plate was irradiated with a dose of 10 Gy, and then further incubated for 1 h. • 4) 25 μL of 8% paraformaldehyde was added to each well, followed by incubating at room temperature for 20 min. • 5) The 8% paraformaldehyde was discarded, followed by adding 0.1% TrintonX-100 and incubating at room temperature for 30 min. • 6) Odessey blocking buffer was added at 50 μL/well, followed by incubating at room temperature for 1.5 h. • 7) The Odessey blocking buffer was discarded, and then a primary antibody (Phospho-KAP1, 1:2000 dilution) was added, followed by incubating overnight at 4° C. • 8) The primary antibody was removed, followed by washing with PBS+0.1% Tween 20 for 5 times. • 9) DNA dye DRAQ5 coated with a second antibody (IRDye 800CW Goat anti-Rabbit, 1:4000 dilution) was added, followed by incubating at room temperature for 1 h. • 10) The second antibody was removed, followed by washing with PBS+0.1% Tween 20 for 5 times. • 11) PBS+0.1% Tween 20 was sucked off with Odyssey. • (3) Data analysis • 1) the relative ratio of Channel 800/Channel 700 for each well was detected. • 2) % of KAP1 phosphorylation was calculated according to the following formula:
% of KAP1 phosphorylation=[(Ratiocmpd−(Ratio)Positive)/((Ratio)Vehicle−(Ratio)Positive]*100 • (Ratio)Positive: the mean value of the test values of each positive control well in the test cell plate; • (Ratio)Vehicle: the mean value of the test values of each negative control well in the test cell plate. • 3) the IC50 of each compound was calculated and the dose-effect curve was plotted: % of KAP1 phosphorylation and log of compound's concentration were fit by using Graphpad 8.0 so as to calculate the IC50.
[formula] • X: log of compound's concentration • Y: % of KAP1 phosphorylation

[2] = compound 10 mg/kg intragastric qd × 5 + IR 1 Gy
[3] = compound 20 mg/kg intragastric qd × 5 + IR 1 Gy

ATM, sequence (Q13315 whole entry): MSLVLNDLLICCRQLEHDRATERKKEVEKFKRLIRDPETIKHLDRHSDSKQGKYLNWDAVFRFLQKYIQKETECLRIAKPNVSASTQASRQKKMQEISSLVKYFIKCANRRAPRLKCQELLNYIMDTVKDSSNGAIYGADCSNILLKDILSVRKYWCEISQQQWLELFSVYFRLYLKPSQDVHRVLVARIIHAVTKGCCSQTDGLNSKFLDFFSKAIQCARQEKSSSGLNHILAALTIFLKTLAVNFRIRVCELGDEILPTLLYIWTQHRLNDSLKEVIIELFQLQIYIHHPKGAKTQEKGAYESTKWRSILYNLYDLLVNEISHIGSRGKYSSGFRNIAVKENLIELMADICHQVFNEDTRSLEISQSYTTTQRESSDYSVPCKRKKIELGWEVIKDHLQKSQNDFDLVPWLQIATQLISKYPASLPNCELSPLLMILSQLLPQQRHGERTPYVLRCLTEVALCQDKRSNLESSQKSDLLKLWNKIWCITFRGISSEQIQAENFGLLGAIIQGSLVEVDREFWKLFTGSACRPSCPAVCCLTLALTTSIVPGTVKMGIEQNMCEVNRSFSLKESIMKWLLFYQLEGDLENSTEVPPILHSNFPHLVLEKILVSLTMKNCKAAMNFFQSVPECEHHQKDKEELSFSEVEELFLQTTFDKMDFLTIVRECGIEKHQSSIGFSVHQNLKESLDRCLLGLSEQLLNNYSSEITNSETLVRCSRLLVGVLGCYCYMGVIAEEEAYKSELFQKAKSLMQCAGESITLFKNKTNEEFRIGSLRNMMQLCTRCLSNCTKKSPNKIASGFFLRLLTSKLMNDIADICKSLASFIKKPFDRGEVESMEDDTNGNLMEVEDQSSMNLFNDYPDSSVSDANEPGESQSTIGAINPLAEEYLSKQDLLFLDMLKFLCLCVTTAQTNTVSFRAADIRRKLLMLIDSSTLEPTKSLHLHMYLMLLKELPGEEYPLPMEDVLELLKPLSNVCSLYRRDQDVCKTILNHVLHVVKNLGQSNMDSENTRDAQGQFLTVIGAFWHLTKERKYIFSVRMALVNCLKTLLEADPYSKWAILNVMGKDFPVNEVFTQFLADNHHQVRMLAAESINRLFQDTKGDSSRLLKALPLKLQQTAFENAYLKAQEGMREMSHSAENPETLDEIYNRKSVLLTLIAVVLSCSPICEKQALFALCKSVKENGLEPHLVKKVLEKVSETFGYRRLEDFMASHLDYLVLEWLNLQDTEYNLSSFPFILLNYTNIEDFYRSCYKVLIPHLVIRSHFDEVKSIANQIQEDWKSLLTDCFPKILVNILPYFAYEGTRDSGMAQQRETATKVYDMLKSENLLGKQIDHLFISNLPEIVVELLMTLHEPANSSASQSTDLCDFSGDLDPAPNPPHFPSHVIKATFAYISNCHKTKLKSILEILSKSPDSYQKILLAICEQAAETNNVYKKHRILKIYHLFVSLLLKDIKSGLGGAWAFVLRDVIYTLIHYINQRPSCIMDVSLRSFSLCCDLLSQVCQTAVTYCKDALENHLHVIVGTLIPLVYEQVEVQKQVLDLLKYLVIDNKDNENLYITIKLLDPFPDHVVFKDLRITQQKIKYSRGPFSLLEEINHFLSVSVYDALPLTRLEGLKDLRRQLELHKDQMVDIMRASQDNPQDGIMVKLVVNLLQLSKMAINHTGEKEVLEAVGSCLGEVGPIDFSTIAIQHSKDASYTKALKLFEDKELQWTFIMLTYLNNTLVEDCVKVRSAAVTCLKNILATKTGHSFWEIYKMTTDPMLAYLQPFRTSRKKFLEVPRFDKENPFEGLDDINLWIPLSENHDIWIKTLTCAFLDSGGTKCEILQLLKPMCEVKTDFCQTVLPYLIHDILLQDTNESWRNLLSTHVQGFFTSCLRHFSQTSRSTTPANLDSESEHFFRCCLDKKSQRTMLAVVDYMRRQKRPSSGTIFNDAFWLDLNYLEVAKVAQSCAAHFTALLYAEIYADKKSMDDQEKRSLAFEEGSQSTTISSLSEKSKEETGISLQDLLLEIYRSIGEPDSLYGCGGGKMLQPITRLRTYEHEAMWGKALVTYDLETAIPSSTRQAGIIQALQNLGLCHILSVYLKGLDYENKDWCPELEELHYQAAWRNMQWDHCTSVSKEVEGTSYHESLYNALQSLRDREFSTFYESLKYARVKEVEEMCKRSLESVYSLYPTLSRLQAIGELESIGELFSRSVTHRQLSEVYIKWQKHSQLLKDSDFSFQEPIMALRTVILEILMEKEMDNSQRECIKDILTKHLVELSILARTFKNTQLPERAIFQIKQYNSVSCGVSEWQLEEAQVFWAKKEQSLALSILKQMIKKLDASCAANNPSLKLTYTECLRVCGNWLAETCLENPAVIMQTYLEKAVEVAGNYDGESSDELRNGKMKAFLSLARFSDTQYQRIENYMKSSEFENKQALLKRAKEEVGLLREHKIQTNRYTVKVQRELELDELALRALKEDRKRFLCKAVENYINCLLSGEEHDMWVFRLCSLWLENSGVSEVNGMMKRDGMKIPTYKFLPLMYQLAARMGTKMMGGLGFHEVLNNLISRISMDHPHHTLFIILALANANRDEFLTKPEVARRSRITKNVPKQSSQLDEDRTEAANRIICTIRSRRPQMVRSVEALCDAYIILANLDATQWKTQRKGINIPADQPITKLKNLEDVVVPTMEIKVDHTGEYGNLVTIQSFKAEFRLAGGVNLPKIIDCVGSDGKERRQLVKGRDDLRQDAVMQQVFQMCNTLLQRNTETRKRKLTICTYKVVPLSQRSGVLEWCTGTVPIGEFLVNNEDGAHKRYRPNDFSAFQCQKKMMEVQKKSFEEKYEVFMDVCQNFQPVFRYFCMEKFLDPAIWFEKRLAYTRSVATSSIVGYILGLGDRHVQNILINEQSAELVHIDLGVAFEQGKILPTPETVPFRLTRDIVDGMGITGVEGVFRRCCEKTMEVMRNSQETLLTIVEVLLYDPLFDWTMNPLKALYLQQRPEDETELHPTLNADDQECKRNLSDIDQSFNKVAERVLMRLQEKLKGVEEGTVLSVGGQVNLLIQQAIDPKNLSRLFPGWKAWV

Row | Structure (SMILES) | pIC50 (ATM) | further results
1 | C[C@@H]1COc2c(-c3ccc(OCCCN(C)C)nc3)ccc3ncc4c(c23)n1c(=O)n4C [Example A-181, (R)-7-(6-(3-(dimethylamino)propoxy)pyridin-3-yl)-2,10-dimethyl-9,10-dihydro-8-oxa-2,4,10a-triazanaphtho[2,1,8-cde]azulen-1(2H)-one] | 9.14 | –
2 | CC[C@H]1COc2c(-c3ccc(OCCCN4CCCCC4)nc3)ccc3ncc4c(c23)n1c(=O)n4C [Example A-186, (S)-10-ethyl-2-methyl-7-(6-(3-(piperidin-1-yl)propoxy)pyridin-3-yl)-9,10-dihydro-8-oxa-2,4,10a-triazanaphtho[2,1,8-cde]azulen-1(2H)-one] | 9.42 | –
3 | CC[C@@H]1COc2c(-c3ccc(OCCCN(C)C)nc3)ccc3ncc4c(c23)n1c(=O)n4C [Example A-188, (R)-7-(6-(3-(dimethylamino)propoxy)pyridin-3-yl)-10-ethyl-2-methyl-9,10-dihydro-8-oxa-2,4,10a-triazanaphtho[2,1,8-cde]azulen-1(2H)-one] | 9.40 | –
4 | CC[C@H]1COc2c(-c3ccc(OCCCN(C)C)nc3)ccc3ncc4c(c23)n1c(=O)n4C [Example A-189, (S)-7-(6-(3-(dimethylamino)propoxy)pyridin-3-yl)-10-ethyl-2-methyl-9,10-dihydro-8-oxa-2,4,10a-triazanaphtho[2,1,8-cde]azulen-1(2H)-one] | 9.42 | –
5 | C[C@H]1CNc2c(-c3ccc(OCCCN4CCCCC4)nc3)c(F)cc3ncc4c(c23)n1c(=O)n4C [Example A-191, (S)-6-fluoro-2,10-dimethyl-7-(6-(3-(piperidin-1-yl)propoxy)pyridin-3-yl)-2,8,9,10-tetrahydro-1H-2,4,8,10a-tetraazanaphtho[2,1,8-cde]azulen-1(2H)-one] | 9.16 | D 17 TGI [1, 2]: 76.9%; D 17 TV (MEAN ± SD) [1, 2]: 347 ± 64***^ mm^3
6 | Cn1c(=O)n2c3c4c(c(-c5ccc(OCCCN6CCCCC6)nc5)c(F)cc4ncc31)NCC21CCC1 [Example A-192, 6-fluoro-2-methyl-7-(6-(3-(piperidin-1-yl)propoxy)pyridin-3-yl)-8,9-dihydrospiro[2,4,8,10a-tetraazanaphtho[2,1,8-cde]azulene-10,1′-cyclobutan]-1(2H)-one] | 9.28 | pIC50 (ATM-phosphorylated KAP1; Homo sapiens, light or radiation study): 8.84; D 17 TGI [1, 3]: 79.6%; D 17 TV (MEAN ± SD) [1, 3]: 323 ± 114***^# mm^3
7 | C[C@@H]1CNc2c(-c3ccc(OCCCN4CCCCC4)nc3)c(F)cc3ncc4c(c23)n1c(=O)n4C [Example A-195, (R)-6-fluoro-2,10-dimethyl-7-(6-(3-(piperidin-1-yl)propoxy)pyridin-3-yl)-2,8,9,10-tetrahydro-1H-2,4,8,10a-tetraazanaphtho[2,1,8-cde]azulen-1(2H)-one] | 9.39 | –
8 | CC[C@H]1CNc2c(-c3ccc(OCCCN4CCCCC4)nc3)c(F)cc3ncc4c(c23)n1c(=O)n4C [Example A-196, (S)-10-ethyl-6-fluoro-2-methyl-7-(6-(3-(piperidin-1-yl)propoxy)pyridin-3-yl)-2,8,9,10-tetrahydro-1H-2,4,8,10a-tetraazanaphtho[2,1,8-cde]azulen-1(2H)-one] | 9.29 | –
9 | C[C@@H]1CNc2c(-c3ccc(OCCCN4CCCCC4)nc3)ccc3ncc4c(c23)n1c(=O)n4C [Example A-199, (R)-2,10-dimethyl-7-(6-(3-(piperidin-1-yl)propoxy)pyridin-3-yl)-2,8,9,10-tetrahydro-1H-2,4,8,10a-tetraazanaphtho[2,1,8-cde]azulen-1(2H)-one] | 9.04 | pIC50 (ATM-phosphorylated KAP1): 9.11
10 | C[C@H]1COc2c(-c3ccc(OCCCN4CCC(C)(C)CC4)nc3)ccc3ncc4c(c23)n1c(=O)n4C [Example A-207, (S)-7-(6-(3-(4,4-dimethylpiperidin-1-yl)propoxy)pyridin-3-yl)-2,10-dimethyl-9,10-dihydro-8-oxa-2,4,10a-triazanaphtho[2,1,8-cde]azulen-1(2H)-one] | 9.36 | –

Continued, in another order:

Row | pIC50 (ATM) | Structure (SMILES) | further results
11 | 9.43 | CN(C)CCCOc1ccc(-c2ccc3ncc4c5c3c2OCC2(CC2)n5c(=O)n4C)cn1 [Example A-179, 7-(6-(3-(dimethylamino)propoxy)pyridin-3-yl)-2-methyl-2,9-dihydro-1H-spiro[8-oxa-2,4,10a-triazanaphtho[2,1,8-cde]azulene-10,1′-cyclopropan]-1-one] | –
12 | 9.59 | CN(C)CCCOc1ccc(-c2ccc3ncc4c5c3c2OCC(C)(C)n5c(=O)n4C)cn1 [Example A-180, 7-(6-(3-(dimethylamino)propoxy)pyridin-3-yl)-2,10,10-trimethyl-9,10-dihydro-8-oxa-2,4,10a-triazanaphtho[2,1,8-cde]azulen-1(2H)-one] | –
13 | 9.60 | CN(C)CCCOc1ccc(-c2ccc3ncc4c5c3c2OCC2(CCC2)n5c(=O)n4C)cn1 [Example A-185, 7-(6-(3-(dimethylamino)propoxy)pyridin-3-yl)-2-methyl-2,9-dihydro-1H-spiro[8-oxa-2,4,10a-triazanaphtho[2,1,8-cde]azulene-10,1′-cyclobutan]-1-one] | –
14 | 9.66 | CC[C@@H]1COc2c(-c3ccc(OCCCN4CCCCC4)nc3)ccc3ncc4c(c23)n1c(=O)n4C [Example A-187, (R)-10-ethyl-2-methyl-7-(6-(3-(piperidin-1-yl)propoxy)pyridin-3-yl)-9,10-dihydro-8-oxa-2,4,10a-triazanaphtho[2,1,8-cde]azulen-1(2H)-one] | –
15 | 9.64 | Cn1c(=O)n2c3c4c(c(-c5ccc(OCCCN6CCCCC6)nc5)ccc4ncc31)NCC21CCC1 [Example A-202, 2-methyl-7-(6-(3-(piperidin-1-yl)propoxy)pyridin-3-yl)-8,9-dihydrospiro[2,4,8,10a-tetraazanaphtho[2,1,8-cde]azulene-10,1′-cyclobutan]-1(2H)-one] | –
16 | 9.54 | CC1CCN(CCCOc2ccc(-c3ccc4ncc5c6c4c3OC[C@H](C)n6c(=O)n5C)cn2)CC1 [Example A-208, (S)-2,10-dimethyl-7-(6-(3-(4-methylpiperidin-1-yl)propoxy)pyridin-3-yl)-9,10-dihydro-8-oxa-2,4,10a-triazanaphtho[2,1,8-cde]azulen-1(2H)-one] | –
